Reference: patent US7939531B2, “Pyrrolopyrazine kinase inhibitors” (Roche Palo Alto, priority 2008, dated 2011)
Structures can show the parent of a compound that is named as a salt.

target: JAK3: Recombinant human kinase domain (Homo sapiens, UniProt P52333); assay: Determination of IC50 of Janus Kinase (JAK) Inhibition (radioactive end-point 33P-ATP kinase assay)
Sequence (P52333 822-1111 limits assumed): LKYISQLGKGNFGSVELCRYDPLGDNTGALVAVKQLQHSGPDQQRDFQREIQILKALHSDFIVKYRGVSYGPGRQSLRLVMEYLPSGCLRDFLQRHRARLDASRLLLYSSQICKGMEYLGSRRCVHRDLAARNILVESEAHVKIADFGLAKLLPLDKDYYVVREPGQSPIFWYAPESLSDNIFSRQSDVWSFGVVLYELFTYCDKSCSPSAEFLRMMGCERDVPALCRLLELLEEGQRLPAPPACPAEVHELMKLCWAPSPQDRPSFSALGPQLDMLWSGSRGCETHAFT
Method: Assay conditions used are described below: • Assay Buffer: JAK Kinase Buffer: 50 mM Hepes [pH 7.2], 10 mM MgCl2, 1 mM DTT, 1 mg/ml BSA. The assay is carried out in this buffer. • Assay Format The kinase activity of all three JAK kinases is measured using a radioactive, end-point assay and with trace amounts of ^33P-ATP. The assays are carried out in 96-well polypropylene plates.
All concentrations are final in the reaction mixture and all incubations are carried at room temperature. […] Final concentration of DMSO in the reaction is 10%. • 2) Compounds are preincubated with enzyme (0.5 nM JAK3 (commercially available), 0.2 nM JAK3 (prepared), 1 nM JAK2, 5 nM JAK1) for 10 minutes. • 3) Reactions are initiated by the addition of a cocktail of the two substrates (ATP and peptide premixed in the JAK Kinase Buffer). […] JAK1 assay is carried out at an ATP concentration of 10 uM and a peptide concentration of 50 uM. • 4) The duration of the assay for JAK2 and JAK3 is 20 minutes. JAK1 assay is carried out for 40 minutes. With all three enzymes, reactions are terminated by the addition of 0.5M EDTA to a final concentration of 100 mM. • 5) 25 ul of terminated reactions are transferred to 150 ul of a 7.5% (v/v) slurry of streptavidin-coated sepharose beads in MgCl2- and CaCl2-free 1× Phosphate Buffered Saline containing 50 mM of EDTA in 96-well, 1.2 um MultiScreen-BV filter plates. • 6) After a 30-minute incubation, the beads are washed under vacuum with the following buffers: • a. 3 to 4 washes with 200 ul of 2M NaCl. • b. 3 to 4 washes with 200 ul of 2M NaCl plus 1% (v/v) phosphoric acid. • c. 1 wash with water. • 7) Washed plates are dried in a 60° C. oven for between 1 to 2 hours. • 8) 70 ul of Microscint 20 scintillation fluid is added to each well of filter plates and after at least 30 minutes of incubation, radioactive counts are measured in a Perkinelmer microplate scintillation counter.

Question: For `CC1(C(=O)c2c[nH]c3ncc(-c4ccc(C(=O)N5CCC(O)C5)s4)nc23)CCCCC1` (stereo not drawn) [Compound I-74, {2-[5-(3-Hydroxy-pyrrolidine-1-carbonyl)-thiophen-2-yl]-5H-pyrrolo[2,3-b]pyrazin-7-yl}-(1-methyl-cyclohexyl)-methanone], which IC50 is on record?
Answer: The IC50 was 28.3 nM.

Question: For `CN(CCO)C(=O)c1ccc(-c2cnc3[nH]cc(C(=O)C4(C)CCCCC4)c3n2)s1` [Compound I-73, 5-[7-(1-Methyl-cyclohexanecarbonyl)-5H-pyrrolo[2,3-b]pyrazin-2-yl]-thiophene-2-carboxylic acid (2-hydroxy-ethyl)-methyl-amide], which IC50 is on record?
Answer: The IC50 was 18 nM.

Question: Which IC50 does the source give for `CN(CC#N)C(=O)c1cc(-c2cnc3[nH]cc(C(=O)C4(C)CCCCC4)c3n2)cs1` [Compound I-40, 4-[7-(1-Methyl-cyclohexanecarbonyl)-5H-pyrrolo[2,3-b]pyrazin-2-yl]-thiophene-2-carboxylic acid cyanomethyl-methyl-amide] here?
Answer: The IC50 was 44.7 nM.

system: not given; assay: not given

Question: Which melting point does the source give for `CC(C)(C)C(=O)c1c[nH]c2ncc(-c3cncs3)nc12` [Compound I-121, 2,2-Dimethyl-1-(2-thiazol-5-yl-5H-pyrrolo[2,3-b]pyrazin-7-yl)-propan-1-one] here?
Answer: Its melting point is 281 to 282 °C.

Question: For `CC(C)(C)C(=O)c1c[nH]c2ncc(-n3ccnc3)nc12` [Compound I-107, 1-(2-Imidazol-1-yl-5H-pyrrolo[2,3-b]pyrazin-7-yl)-2,2-dimethyl-propan-1-one], which melting point is on record?
Answer: The melting point was 215 to 217 °C.

Question: Which melting point does the source give for `COc1cncc(-c2cnc3[nH]cc(C(=O)C(C)(C)C)c3n2)c1` [Compound I-6, 1-[2-(5-Methoxy-pyridin-3-yl)-5H-pyrrolo[2,3-b]pyrazin-7-yl]-2,2-dimethyl-propan-1-one] here?
Answer: The melting point was 215 to 223.6 °C.

Question: Which melting point does the source give for `CC(C)(C)C(=O)c1c[nH]c2ncc(-c3ccc(C(=O)NC4CCOCC4)s3)nc12` [Compound I-32, 5-[7-(2,2-Dimethyl-propionyl)-5H-pyrrolo[2,3-b]pyrazin-2-yl]-thiophene-2-carboxylic acid (tetrahydro-pyran-4-yl)-amide] here?
Answer: The melting point was over 300 °C.

Question: For `CCOC(=O)c1cc2cc(C3=C(c4cnc5[nH]cc(C(=O)C(C)(C)C)c5n4)CCC3)ccc2[nH]1` [Compound I-39, 5-{2-[7-(2,2-Dimethyl-propionyl)-5H-pyrrolo[2,3-b]pyrazin-2-yl]-cyclopent-1-enyl}-1H-indole-2-carboxylic acid ethyl ester], which melting point is on record?
Answer: The melting point was 278 to 280 °C.

Question: For `Cc1nccn1-c1cnc2[nH]cc(C(=O)C(C)(C)C)c2n1` [Compound I-108, 2,2-Dimethyl-1-[2-(2-methyl-imidazol-1-yl)-5H-pyrrolo[2,3-b]pyrazin-7-yl]-propan-1-one], which melting point is on record?
Answer: Its melting point is 247 to 249 °C.

Question: For `CNC1CCCN(c2cnc3[nH]cc(C(=O)NC(C)C)c3n2)C1` (stereo not drawn) [Compound I-8, 2-(3-Methylamino-piperidin-1-yl)-5H-pyrrolo[2,3-b]pyrazine-7-carboxylic acid isopropylamide; compound with trifluoro-acetic acid], which melting point is on record?
Answer: The melting point was 54 to 64 °C.

Question: With `CC(C)NC(=O)c1c[nH]c2ncc(N3CCCC(N(C)C(=O)OC(C)(C)C)C3)nc12` (stereo not drawn) [Compound I-7, [1-(7-Isopropylcarbamoyl-5H-pyrrolo[2,3-b]pyrazin-2-yl)-piperidin-3-yl]-methyl-carbamic acid tert-butyl ester] as the molecule, how does the melting point read?
Answer: Its melting point is 251 to 252 °C.

Question: With `CC(C)(C)C(=O)c1c[nH]c2ncc(-c3cn(C4CCCC4)nn3)nc12` [Compound I-12, 1-[2-(1-Cyclopentyl-1H-[1,2,3]triazol-4-yl)-5H-pyrrolo[2,3-b]pyrazin-7-yl]-2,2-dimethyl-propan-1-one] as the molecule, how does the melting point read?
Answer: The melting point was 193.3 to 199.3 °C.

Question: For `CC(C)(C)C(=O)c1c[nH]c2ncc(-c3ccnc(N4CCSCC4)c3)nc12` [Compound I-15, 2,2-Dimethyl-1-[2-(2-thiomorpholin-4-yl-pyridin-4-yl)-5H-pyrrolo[2,3-b]pyrazin-7-yl]-propan-1-one], which melting point is on record?
Answer: The melting point was 287 to 290 °C.

Question: With `CCc1nccn1-c1cnc2[nH]cc(C(=O)C(C)(C)C)c2n1` [Compound I-110, 1-[2-(2-Ethyl-imidazol-1-yl)-5H-pyrrolo[2,3-b]pyrazin-7-yl]-2,2-dimethyl-propan-1-one] as the molecule, how does the melting point read?
Answer: Its melting point is 276 to 278 °C.

Question: Which melting point does the source give for `CC(=O)N1CCN(c2cc(-c3cnc4[nH]cc(C(=O)C(C)(C)C)c4n3)ccn2)CC1` [Compound I-5, 1-{2-[2-(4-Acetyl-piperazin-1-yl)-pyridin-4-yl]-5H-pyrrolo[2,3-b]pyrazin-7-yl}-2,2-dimethyl-propan-1-one] here?
Answer: Its melting point is 257 to 260 °C.

Question: For `CC(C)(C)C(=O)c1c[nH]c2ncc(-c3ccnc(N4CCCCC4)c3)nc12` [Compound I-13, 2,2-Dimethyl-1-[2-(3,4,5,6-tetrahydro-2H-[1,2′]bipyridinyl-4′-yl)-5H-pyrrolo[2,3-b]pyrazin-7-yl]-propan-1-one], which melting point is on record?
Answer: The melting point was 250 to 251 °C.

Question: Which melting point does the source give for `CC1CCCN1c1cc(-c2cnc3[nH]cc(C(=O)C(C)(C)C)c3n2)ccn1` (stereo not drawn) [Compound I-16, 2,2-Dimethyl-1-{2-[2-(2-methyl-pyrrolidin-1-yl)-pyridin-4-yl]-5H-pyrrolo[2,3-b]pyrazin-7-yl}-propan-1-one] here?
Answer: Its melting point is 220 to 221 °C.

Question: For `CC(C)(C)C(=O)c1c[nH]c2ncc(-c3ccnc(N4CCCC4)c3)nc12` [Compound I-11, 2,2-Dimethyl-1-[2-(2-pyrrolidin-1-yl-pyridin-4-yl)-5H-pyrrolo[2,3-b]pyrazin-7-yl]-propan-1-one], which melting point is on record?
Answer: The melting point was 275.1 to 276.4 °C.

Question: With `CN(C)C1CCN(c2cc(-c3cnc4[nH]cc(C(=O)C(C)(C)C)c4n3)ccn2)C1` (stereo not drawn) [Compound I-14, 1-{2-[2-(3-Dimethylamino-pyrrolidin-1-yl)-pyridin-4-yl]-5H-pyrrolo[2,3-b]pyrazin-7-yl}-2,2-dimethyl-propan-1-one] as the molecule, how does the melting point read?
Answer: The melting point was 226 to 228 °C.

Question: With `CC1(C(=O)c2c[nH]c3ncc(-c4cccs4)nc23)CCCCC1` [Compound I-106, (1-Methyl-cyclohexyl)-(2-thiophen-2-yl-5H-pyrrolo[2,3-b]pyrazin-7-yl)-methanone] as the molecule, how does the melting point read?
Answer: The melting point was 224 to 225 °C.

Question: For `CCC(CC)NC(=O)c1cc(-c2cnc3[nH]cc(C(=O)C4(C)CCCCC4)c3n2)cs1` (as salt: hydrochloride) [Compound I-43, 4-[7-(1-Methyl-cyclohexanecarbonyl)-5H-pyrrolo[2,3-b]pyrazin-2-yl]-thiophene-2-carboxylic acid (1-ethyl-propyl)-amide], which melting point is on record?
Answer: The melting point was 273 to 275 °C.

Question: For `CC(C)(C)C(=O)c1c[nH]c2ncc(-c3ccc(C(=O)NC4CCCC4)s3)nc12` [Compound I-31, 5-[7-(2,2-Dimethyl-propionyl)-5H-pyrrolo[2,3-b]pyrazin-2-yl]-thiophene-2-carboxylic acid cyclopentylamide], which melting point is on record?
Answer: Its melting point is over 300 °C.

Question: Which melting point does the source give for `CC(C)(C)C(=O)c1c[nH]c2ncc(-n3ccc4ccccc43)nc12` [Compound I-97, 1-(2-Indol-1-yl-5H-pyrrolo[2,3-b]pyrazin-7-yl)-2,2-dimethyl-propan-1-one] here?
Answer: Its melting point is 205 to 207 °C.

Question: For `CC(C)(C)C(=O)c1c[nH]c2ncc(-c3cn(S(=O)(=O)c4ccccc4)c4ccccc34)nc12` [Compound I-1, 1-[2-(1-Benzenesulfonyl-1H-indol-3-yl)-5H-pyrrolo[2,3-b]pyrazin-7-yl]-2,2-dimethyl-propan-1-one], which melting point is on record?
Answer: Its melting point is 267 to 268 °C.

Question: For `CC(C)(C)C(=O)c1c[nH]c2ncc(C3=C(c4ccccc4)CCC3)nc12` [Compound I-38, 2,2-Dimethyl-1-[2-(2-phenyl-cyclopent-1-enyl)-5H-pyrrolo[2,3-b]pyrazin-7-yl]-propan-1-one], which melting point is on record?
Answer: Its melting point is 207 to 209 °C.

Question: For `CC(C)(C)C(=O)c1c[nH]c2ncc(-c3cn(Cc4ccccc4)nn3)nc12` [Compound I-105, 1-[2-(1-Benzyl-1H-[1,2,3]triazol-4-yl)-5H-pyrrolo[2,3-b]pyrazin-7-yl]-2,2-dimethyl-propan-1-one], which melting point is on record?
Answer: The melting point was 235 to 237 °C.

Question: With `CC1=NCCN1c1cnc2[nH]cc(C(=O)C(C)(C)C)c2n1` [Compound I-109, 2,2-Dimethyl-1-[2-(2-methyl-4,5-dihydro-imidazol-1-yl)-5H-pyrrolo[2,3-b]pyrazin-7-yl]-propan-1-one] as the molecule, how does the melting point read?
Answer: Its melting point is 235 to 236 °C.
